These results are taken from US20130065756A1, “SPIROHETEROCYCLIC DIONE DERIVATIVES USED AS PESTICIDES” (SYNGENTA CROP PROTECTION LLC, priority 2009, published 2013).

Like-named read-outs stand apart in the source and are kept apart here. A value given as a limit tells only on which side of the number the result lay.

In data set [1] the test system is Tetranychus urticae (two-spotted spider mite). Description: Example B4: Tetranychus urticae, mixed population, feeding/residual contact activity, preventive. The note with it: foliar, 192 h, read-out: activity (egg, larval and adult mortality).
The subject of the next data set is pepper plants. The note with it: in vivo, 6 days, 200 ppm. On the procedure: (§1) (Mixed Population, Feeding/Residual Contact Activity, Plant Damage Evaluation)
(§2) Pepper [P] or cabbage […] plants infested with a mixed population of Myzus persicae are treated with diluted test solutions of the compounds in a spray chamber. 6 days after treatment, samples are checked for mortality and for plant damage (phytotoxicity), visual assessment being made using a 0-100% rating scale (100%=total damage to plant; 0%=no damage to plant).

The test system of data set [2] is Myzus persicae (green peach aphid). Briefly: Example B9: Myzus persicae on pepper or cabbage plants, feeding/residual contact activity. In kind it is in vivo. The note with it: 144 h, 6 days, read-out: activity against Myzus persicae (mortality).
For data set [3] the test system is unchanged. Description: Example B2: Myzus persicae, mixed population, systemic/feeding activity, curative. The note with it: 144 h, read-out: activity (mortality).
Data set [4] has the same test system. Description: Example B1: Myzus persicae, mixed population, feeding/residual contact activity, preventive. In kind it is in vivo. The note with it: foliar, 144 h, sprayed sunflower leaf discs, 6 days.
The test system of data set [5] is Aphis Craccivora (cowpea aphid). Description: Example B7: translaminar activity against Aphis craccivora. In kind it is in vivo. The note with it: 120 h, upper side of French bean leaves painted, 5 days. Here is the method: Translaminar Activity Against Aphis Craccivora (Cowpea Aphid)
French bean leaves (Phaseolus vulgaris) are infested with about 20 mixed age individuals on the lower leaf side using clip cages. 1 day after the infestation, the upper side of the leaves is treated with the test solution by painting. 5 days later, samples are checked for mortality.

Data set [6] concerns Nilaparvata lugens (brown rice planthopper). Briefly: Example B6: Nilaparvata lugens, larvicide, feeding/contact. The note with it: in Oryza sativa, read-out: activity (mortality, growth regulation, effects on F1 generation).
Data set [7] has as its system Myzus persicae (green peach aphid). Description: Example B8: drench activity against Myzus persicae. The note with it: soil, 168 h, read-out: activity (mortality), drench.
Data set [8] deals with Thrips tabaci (onion thrips). Briefly: Example B3: Thrips tabaci, mixed population, feeding/residual contact activity, preventive. The note with it: foliar, 144 h, read-out: activity (mortality).
The next data set has as its system cabbage plants. The note with it: in vivo, 6 days, 200 ppm. Here is the method: as §1, §2

`CON1CCC2(CC1)C(O)=C(c1c(C)cc(Cl)cc1C)C(=O)N2N(C)C` [A3]: the mortality at 400 ppm in data set [1] was over 80%.
As for `CCOC(=O)OC1=C(c2c(C)cc(Cl)cc2C)C(=O)N(N(C)C)C12CCN(OC)CC2` [A4], in the data set with pepper plants, the “damage to pepper plants (phytotoxicity)” value is reported as at most 10%. For the same compound, the mortality at 200 ppm in [2] (pepper [P] plants sprayed) was at least 80%. The mortality at 400 ppm in data set [3], in [4] and in data set [1] was over 80% in each case.
In the case of `CON1CCC2(CC1)C(=O)C(c1c(C)cc(C)cc1C)C(=O)N2N(C)C` (centres unmarked) [A1, 1-Dimethylamino-8-methoxy-3-(2,4,6-trimethyl-phenyl)-1,8-diaza-spiro[4.5]decane-2,4-dione], the mortality at 400 ppm in [5], in data set [6], in data set [8] and in [1] was over 80% in each case. In addition, the “damage to pepper plants (phytotoxicity)” value in the data set on pepper plants is recorded as at most 10%. The mortality at 200 ppm in [2] (pepper [P] plants sprayed) is at least 80%. Moreover, the mortality at 25 ppm in data set [7] is over 80%.
In the case of `CCOC(=O)OC1=C(c2cc(C)ccc2C)C(=O)N(N2CCOCC2)C12CCN(OC)CC2` [B6], the “damage to cabbage plants (phytotoxicity)” value with cabbage plants is reported as at most 10%. Moreover, the mortality at 200 ppm in data set [2] (cabbage [C] plants sprayed) is at least 80%. Also, the mortality at 400 ppm in data set [3] is over 80%.
With `CON1CCC2(CC1)C(O)=C(c1cc(C)ccc1C)C(=O)N2N1CCOCC1` [B5], the “damage to cabbage plants (phytotoxicity)” value with cabbage plants is at most 10%. The mortality at 200 ppm in data set [2] (cabbage [C] plants sprayed) is at least 80%. Besides, in [3], the mortality at 400 ppm was over 80%.
In the case of `CCOC(=O)OC1=C(c2c(C)cc(Cl)cc2C)C(=O)N(N2CCOCC2)C12CCN(OC)CC2` [B4], the “damage to cabbage plants (phytotoxicity)” value with cabbage plants is on record as at most 10%. The mortality at 200 ppm in data set [2] (cabbage [C] plants sprayed) was at least 80%. Moreover, the mortality at 400 ppm in data set [3], in data set [4] and in data set [1] was over 80% each time.
For `CON1CCC2(CC1)C(O)=C(c1cc(C)ccc1C)C(=O)N2N(C)C` [A5], in the data set on pepper plants, the “damage to pepper plants (phytotoxicity)” value was at most 10%. The mortality at 200 ppm in data set [2] (pepper [P] plants sprayed) is at least 80%.
On to `CON1CCC2(CC1)C(O)=C(c1c(C)cc(Cl)cc1C)C(=O)N2N1CCOCC1` [B3], for which, in the data set on cabbage plants, the “damage to cabbage plants (phytotoxicity)” value is on record as at most 10%. The mortality at 200 ppm in [2] (cabbage [C] plants sprayed) was at least 80%. The mortality at 400 ppm in [3], in data set [4] and in data set [1] was over 80% throughout.
On to `CCOC(=O)OC1=C(c2c(C)cc(C)cc2C)C(=O)N(N2CCOCC2)C12CCN(OC)CC2` [B2], for which the “damage to cabbage plants (phytotoxicity)” value in the data set on cabbage plants was at most 10%. Moreover, the mortality at 200 ppm in [2] (cabbage [C] plants sprayed) is at least 80%. The mortality at 400 ppm in data set [3] and in data set [4] was over 80% throughout.
Turning to `CCOC(=O)OC1=C(c2c(C)cc(C)cc2C)C(=O)N(N(C)C)C12CCN(OC)CC2` [A2, Carbonic acid 1-dimethylamino-8-methoxy-2-oxo-3-(2,4,6-trimethyl-phenyl)-1,8-diaza-spiro[4.5]dec-3-en-4-yl ester ethyl ester], the mortality at 400 ppm in [5], in data set [3], in [6] and in data set [1] was over 80% each time. Also, in the data set on pepper plants, the “damage to pepper plants (phytotoxicity)” value is given as at most 10%. The mortality at 200 ppm in data set [2] (pepper [P] plants sprayed) is at least 80%. The mortality at 25 ppm in [7] is over 80%.
Consider `CON1CCC2(CC1)C(O)=C(c1c(C)cc(C)cc1C)C(=O)N2N1CCOCC1` [B1], for which, in the data set on cabbage plants, the “damage to cabbage plants (phytotoxicity)” value is given as at most 10%. In addition, the mortality at 200 ppm in data set [2] (cabbage [C] plants sprayed) was at least 80%. For the same compound, the mortality at 400 ppm in [3], in [4] and in data set [1] was over 80% each time.
